A word on the IC50: it is the concentration that inhibits the measured activity by half. Low values mean higher potency, high ones lower potency.

The target of one experiment is Cbl-b (Homo sapiens (Human), UniProt Q13191). Description: Cbl-b LCK Ub TR-FRET assay (Cbl-b Lck HTRF). The class given is biochemical. To be noted: for IC50: Cbl-b LCK Ub TR-FRET; for fold-selectivity (Cbl-b over C-cbl): ratio C-cbl Lck HTRF IC50 / Cbl-b Lck HTRF IC50. Here is the method:
(§1) 6 μL of detection mixture was added to all wells and briefly centrifuged before incubating for 20 min at room temperature. […] IC50 was generated using no LCK as the low control and DMSO as the high control.
(In general: Time-resolved FRET reads energy transfer from a long-lived donor to a nearby acceptor.)

In a further experiment the target is c-Cbl (Homo sapiens (Human), UniProt P22681). Description: C-Cbl LCK Ub TR-FRET assay (C-cbl Lck HTRF). The class given is biochemical. The protocol:
as §1

Experiment [1] deals with Human Cbl-b (residues 40-426) (Homo sapiens (Human), UniProt Q13191). Description: Cbl-b SPR assay. In kind it is binding. To be noted: C-cbl SPR Kd vs Cbl-b SPR Kd. The protocol: Affinity of binding to Cbl-b and c-Cbl for compounds described herein was assessed by surface plasmon resonance (SPR) according to the following protocol.
A surface capture range of 1300-1500 RU of protein was used for both isoforms.
For SPR measurements, 6 concentrations with 2 fold serial dilution were measured with blanks flanking each series for double referencing. […] SPR sensorgrams were recorded in multi-cycle kinetics format, with a contact time of 60 seconds and a flow rate of 40 μl/min, the dissociation time was varied between 120-1200 seconds aiming for 4-5 half-lives of the measured interaction.
Kinetic and affinity parameters were extracted from the multicycle kinetics data fitting to a 1:1 binding model using the Biacore™ Incyte evaluation software (Cytiva).
Chaser assay utilize a single cycle kinetics SPR experiment with a contact time of 120 seconds, a flow rate of 50 μl/min and a dissociation time of 450 seconds. Single cycle kinetics titration utilized an initial blank injection and 5 concentrations with 2 fold serial dilution with a maximum concentration of 500 nM, blanked to a preceding 6 point blank single cycle kinetics injection for double referencing.
The kd is measured independently by determining the percentage unoccupied compound binding site over time by measuring the binding of a chaser compound measured by SPR.
Chaser binding was measured by a multicycle kinetics SPR experiment using a contact time of 20 seconds, a flow rate of 30 μl/min, and a dissociation time of 120 seconds. […] The % compound bound at a given time was determined by comparison to a single injection of chaser preceding the single cycle kinetics titration defined below. % Compound Bound=(1−(RUT/RUT0))*100
The % compound bound is plotted against time in seconds and fit to a single exponential, where the exponent represents the kd of the compound-protein complex. The single cycle kinetics experiment of the compound is then fit with a fixed kd determined using the chaser.
For orientation: In SPR one partner is held on a chip, and binding of the other changes the refractive index at the surface.

Chain of Human Cbl-b (residues 40-426) (Q13191 40-426): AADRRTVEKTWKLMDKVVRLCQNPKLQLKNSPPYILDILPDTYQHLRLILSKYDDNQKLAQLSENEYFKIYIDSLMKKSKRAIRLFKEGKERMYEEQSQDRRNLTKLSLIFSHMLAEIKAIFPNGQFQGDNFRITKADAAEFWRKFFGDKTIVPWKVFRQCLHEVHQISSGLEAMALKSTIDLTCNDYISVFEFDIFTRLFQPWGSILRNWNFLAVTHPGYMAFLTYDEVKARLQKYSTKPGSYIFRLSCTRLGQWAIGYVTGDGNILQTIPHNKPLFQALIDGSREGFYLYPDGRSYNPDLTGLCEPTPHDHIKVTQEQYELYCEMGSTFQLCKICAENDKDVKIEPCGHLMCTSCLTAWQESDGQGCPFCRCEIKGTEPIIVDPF
Chain of Cbl-b (Q13191 40-426): as above
Chain of c-Cbl (P22681 47-435): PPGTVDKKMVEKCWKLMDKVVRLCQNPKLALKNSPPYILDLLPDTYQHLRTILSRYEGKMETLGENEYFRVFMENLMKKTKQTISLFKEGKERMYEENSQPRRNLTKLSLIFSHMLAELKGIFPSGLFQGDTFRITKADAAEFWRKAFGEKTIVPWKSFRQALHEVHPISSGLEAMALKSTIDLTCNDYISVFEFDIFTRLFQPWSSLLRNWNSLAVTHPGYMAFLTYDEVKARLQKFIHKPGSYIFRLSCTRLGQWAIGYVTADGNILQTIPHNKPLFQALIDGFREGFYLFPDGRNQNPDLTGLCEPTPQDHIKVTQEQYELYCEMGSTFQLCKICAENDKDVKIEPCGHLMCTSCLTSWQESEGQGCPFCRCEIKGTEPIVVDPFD

As for `Cn1cnnc1[C@](O)(c1cccc(N2Cc3c(cc(CNC4(C)CCC4)cc3C(F)(F)F)C2=O)c1)C1CCC1` (single isomer, unassigned) [Compound 1], the IC50 at Cbl-b amounted to 8300 nM; at c-Cbl it was 14100 nM. For the same compound, the “fold-selectivity (Cbl-b over C-cbl)” value on Cbl-b is given as “(1.7x)”.
Consider `CC(C)[C@H]1CN(C)CCN1Cc1cc2c(c(C(F)(F)F)c1)CN(c1cccc([C@@H](c3nncn3C)C3COC3)c1)C2=O` (single isomer, unassigned) [Compound 10], for which the figures for the IC50 against Cbl-b and on c-Cbl were 12 nM and 24 nM, respectively. Also, the “fold-selectivity (Cbl-b over C-cbl)” value at Cbl-b is reported as “(2.0x)”.
For `CC(C)[C@H]1CN(C)CCN1Cc1cc2c(c(C(F)(F)F)c1)CN(c1cccc([C@H](c3nncn3C)C3COC3)c1)C2=O` (single isomer, unassigned) [Compound 11], in that order: 5100 nM, ≥ 20000 nM and “(3.9x)”.
For `Cn1cnnc1[C@H](c1cccc(N2Cc3c(cc(CNC4(C)CCC4)cc3C(F)(F)F)C2=O)c1)N1CCC1` (single isomer, unassigned) [Compound 32], in that order: 3800 nM, 20000 nM and “(5.3x)”.
For `Cn1cnnc1[C@@H](c1cccc(N2Cc3c(cc(CNC4(C)CCC4)cc3C(F)(F)F)C2=O)c1)N1CCC1` (single isomer, unassigned) [Compound 33], in that order: 150 nM, 720 nM and “(4.8x)”.
Regarding `CO[C@@](c1cccc(N2Cc3c(cc(CNC4(C)CCC4)cc3C(F)(F)F)C2=O)c1)(c1nncn1C)C1CCC1` (single isomer, unassigned) [Compound 118], on Cbl-b, the IC50 is ≥ 20000 nM and the “fold-selectivity (Cbl-b over C-cbl)” value is reported as 1.0x.
On to `Cn1cnnc1[C@H](c1cccc(N2Cc3c(cc(CNC4(C)CCC4)cc3C(F)(F)F)C2=O)c1)C1CCOCC1.O=CO` (single isomer, unassigned) [Compound 291], for which the “fold-selectivity (Cbl-b over C-cbl)” value on Cbl-b was found to be 4.3x. This compound also came in with a Fold of selectivity in experiment [1] of 2.1×.
On to `Cn1cnnc1[C@@H](C[C@H]1COCCO1)c1cccc(N2Cc3c(cc(CNC4(C)CCC4)cc3C(F)(F)F)C2=O)c1` (single isomer, unassigned) [Compound 295, 2-(3-((S)-2-((S)-1,4-dioxan-2-yl)-1-(4-methyl-4H-1,2,4-triazol-3-yl)ethyl)phenyl)-6-(((1-methylcyclobutyl)amino)methyl)-4-(trifluoromethyl)isoindolin-1-one], for which the IC50 at Cbl-b is ≥ 20000 nM.
At Cbl-b, `Cn1cnnc1[C@H](c1cccc(N2Cc3c(cc(CNC4(C)CCC4)cc3C(F)(F)F)C2=O)c1)[C@H]1C[C@H](C)C1` (single isomer, unassigned) [Compound 376] yielded an IC50 of 55 nM.
For the compound `CC1(NCc2cc3c(c(C(F)(F)F)c2)CN(c2cccc([C@@H](C4COC4)n4ccnn4)c2)C3=O)CCC1` (single isomer, unassigned) [Compound 436, (R)-6-(((1-methylcyclobutyl)amino)methyl)-2-(3-(oxetan-3-yl(1H-1,2,3-triazol-1-yl)methyl)phenyl)-4-(trifluoromethyl)isoindolin-1-one], half-maximal inhibition against Cbl-b (Example 121) (IC50) was put at 570 nM. In other words, the sub-micromolar range.
As to `Cn1cnnc1[C@]1(c2cc(NC3CCCCC3)nc(N3Cc4c(cc(CNC5(C)CCC5)cc4C(F)(F)F)C3=O)c2)C[C@@H](C)C1` [Compound 50, 2-(6-(cyclohexylamino)-4-((1r,3r)-3-methyl-1-(4-methyl-4H-1,2,4-triazol-3-yl)cyclobutyl)pyridin-2-yl)-6-(((1-methylcyclobutyl)amino)methyl)-4-(trifluoromethyl)isoindolin-1-one], on Cbl-b, the IC50 amounted to 31 nM and the “fold-selectivity (Cbl-b over C-cbl)” value is “(1.7x)”. The same compound showed a Fold of selectivity in experiment [1] of 3.0×.
Take `Cn1cnnc1[C@]1(c2cc(NC3CCCCC3)nc(N3Cc4c(cc(CNC5(C)CCC5)cc4C(F)(F)F)C3=O)c2)C[C@H](C)C1` [Compound 51, 2-(6-(cyclohexylamino)-4-((1s,3s)-3-methyl-1-(4-methyl-4H-1,2,4-triazol-3-yl)cyclobutyl)pyridin-2-yl)-6-(((1-methylcyclobutyl)amino)methyl)-4-(trifluoromethyl)isoindolin-1-one]: on Cbl-b, the midpoint of inhibition, the IC50, lay at 38 nM and the “fold-selectivity (Cbl-b over C-cbl)” value is “(1.6x)”.
For the compound `Cn1cnnc1[C@]1(c2cc(NC3CCCC3)nc(N3Cc4c(cc(CNC5(C)CCC5)cc4C(F)(F)F)C3=O)c2)C[C@@H](C)C1` [Compound 52, 2-(6-(cyclopentylamino)-4-((1r,3r)-3-methyl-1-(4-methyl-4H-1,2,4-triazol-3-yl)cyclobutyl)pyridin-2-yl)-6-(((1-methylcyclobutyl)amino)methyl)-4-(trifluoromethyl)isoindolin-1-one], on Cbl-b, the IC50 is 7.2 nM and the “fold-selectivity (Cbl-b over C-cbl)” value is listed as “(1.3x)”. In experiment [1], this compound displayed a Fold of selectivity of 11×.
For `Cn1cnnc1[C@]1(c2cc(NC3CCCC3)nc(N3Cc4c(cc(CNC5(C)CCC5)cc4C(F)(F)F)C3=O)c2)C[C@H](C)C1` [Compound 53, 2-(6-(cyclopentylamino)-4-((1s,3s)-3-methyl-1-(4-methyl-4H-1,2,4-triazol-3-yl)cyclobutyl)pyridin-2-yl)-6-(((1-methylcyclobutyl)amino)methyl)-4-(trifluoromethyl)isoindolin-1-one], in that order: 5.7 nM, “(1.1x)” and 9.2×.
As to `Cn1cnnc1[C@]1(c2cc(OC3CCCC3)nc(N3Cc4c(cc(CNC5(C)CCC5)cc4C(F)(F)F)C3=O)c2)C[C@H](C)C1` [Compound 54, 2-(6-(cyclopentyloxy)-4-((1s,3s)-3-methyl-1-(4-methyl-4H-1,2,4-triazol-3-yl)cyclobutyl)pyridin-2-yl)-6-(((1-methylcyclobutyl)amino)methyl)-4-(trifluoromethyl)isoindolin-1-one], at Cbl-b, 8.2 nM corresponded to half-maximal inhibition (IC50) and the “fold-selectivity (Cbl-b over C-cbl)” value was “(1.4x)”. In experiment [1], this compound came in with a Fold of selectivity of 11×.
On to `Cn1cnnc1[C@]1(c2cc(OC3CCCC3)nc(N3Cc4c(cc(CNC5(C)CCC5)cc4C(F)(F)F)C3=O)c2)C[C@@H](C)C1` [Compound 55, 2-(6-(cyclopentyloxy)-4-((1r,3r)-3-methyl-1-(4-methyl-4H-1,2,4-triazol-3-yl)cyclobutyl)pyridin-2-yl)-6-(((1-methylcyclobutyl)amino)methyl)-4-(trifluoromethyl)isoindolin-1-one], for which, at Cbl-b, the IC50 is 6.7 nM and the “fold-selectivity (Cbl-b over C-cbl)” value is “(1.4x)”.
`CCNc1cc(C2(c3nncn3C)CC(F)(F)C2)cc(N2Cc3c(cc(CNC4(C)CCC4)cc3C(F)(F)F)C2=O)n1` [Compound 62, 2-(4-(3,3-difluoro-1-(4-methyl-4H-1,2,4-triazol-3-yl)cyclobutyl)-6-(ethylamino)pyridin-2-yl)-6-(((1-methylcyclobutyl)amino)methyl)-4-(trifluoromethyl)isoindolin-1-one] displayed an IC50 on Cbl-b of 5.5 nM.
`CC(=O)N1CC(c2cccc(N3Cc4c(cc(CNC5(C)CCC5)cc4C(F)(F)F)C3=O)c2)(c2nncn2C)C1` [Compound 112, 2-(3-(1-acetyl-3-(4-methyl-4H-1,2,4-triazol-3-yl)azetidin-3-yl)phenyl)-6-(((1-methylcyclobutyl)amino)methyl)-4-(trifluoromethyl)isoindolin-1-one]: at Cbl-b, the IC50 was ≥ 20000 nM and the “fold-selectivity (Cbl-b over C-cbl)” value was determined as 1.0x.

(Values after patent US12187709B2 (Genentech, Inc., priority 2021, dated 2025).)
